Values quoted from earlier work as cited in US6667342B1, “Benzenesulfonamide-derivatives and their use as medicaments” (Astrazeneca AB, priority 1998, dated 2003).

Columns and labels:
[1] = test system: PDH

What does the source list for `O=C(O)C(Cl)Cl` [DCA, dichloroacetic acid]?
glycaemia (Stacpoole et al. 1978): reducing glycaemia; plasma glucose (after repeated administration (Evans and Stacpoole 1982)): significant decrease; activity of PDH ([1]; after acute administration in animals (Vary et al. 1988)): increases; proportion of PDH in its active form ([1]; single administration, 150 mg/kg, intraperitoneally (Vary et al. 1988)): increased
